Tested on: Male C57BL/6 mice
Test: oral glucose tolerance test in mice
Assay type: in vivo
Details: oral glucose 3 g/kg at 0 min, versus vehicle
Method: All animal experiments described below and listed in Table 1 were performed in accordance to Austrian law and the principles of good laboratory animal care. Data shown in Table 1 are obtained using commercially available male mice purchased, e.g. from the breeding facilities of Charles River Lab. (USA). Male C57BL/6 mice were used at the age of 7-30 weeks and had free access to a standard laboratory chow diet (kg/kg: <10% crude fat) and water except for defined fasting periods before experimentation. They were maintained at room temperature and a 12 h/12 h light-dark cycle.
The antidiabetic activities of the products listed in Table 1 were evaluated in oral glucose tolerance tests in mice, in analogy to the procedure known to the general physician. Mice were fasted for 8-12 hours prior to oral glucose tolerance testing. For biological testing, the products listed in Table 1 were dissolved or suspended in 0.5% carboxymethylcellulose containing 1-2% acetic acid. A control group receiving no test product was examined in parallel in each test run. The control group received the same amount of a 0.5% carboxymethylcellulose solution containing 1-2% acetic acid (vehicle). Administration of products listed in Table 1 or vehicle at T=−45 min was followed after 45 min by oral administration via gavage of a glucose solution (3 g/kg) at T=0 min. Blood was collected via puncture of the tip of the tail immediately before administration of products listed in Table 1 or vehicle, immediately before administration of glucose, and at T=30 min and/or T=90 and/or T=150 as the case may be. Blood glucose was determined using portable glucometers as commonly used in human diabetes.
The increment in blood glucose at T=min over levels measured at T=0 min was calculated for each animal. Mean values of the increment for treatment group and vehicle group were compared (typical group size n=6-10 mice). Percent reduction induced by products listed in Table 1 versus vehicle was the readout parameter for glucose-lowering activity. As listed in Table 1, an effect of 1 means a reduction of more than 15% of incremental blood glucose at the given time point T=min versus vehicle group.
Antidiabetic effects of products are listed in Table 1 as evaluated in a glucose tolerance test in mice.

[1] = product dose 45 mg/kg per os at -45 min, glucose measurement at 30 min
[2] = product dose 90 mg/kg per os at -45 min, glucose measurement at 30 min

| Structure (SMILES) | Antidiabetic activity [1] | Antidiabetic activity [2] | further results |
| --- | --- | --- | --- |
| CC1(c2ccc(F)cc2)CCC2(C)CC3(CCCO3)CCN2C1 (stereo not shown) [Product 5b, 7′-(4-fluorophenyl)-7′,9a′-dimethyldecahydro-3H-spiro[furan-2,2′-quinolizine]] | 1 (an effect of 1 means a reduction of more than 15% of incremental blood glucose at the given time point T=min versus vehicle group) |  |  |
| CC1(c2ccccc2)CCC2(C)CC3(CCCO3)CCN2C1 (stereo not shown) [Product 5a, 7′,9a′-dimethyl-7′-phenyldecahydro-3H-spiro[furan-2,2′-quinolizine]] |  |  | Antidiabetic activity (product dose 22.5 mg/kg per os at -45 min, glucose measurement at 30 min): 1 (an effect of 1 means a reduction of more than 15% of incremental blood glucose at the given time point T=min versus vehicle group); Antidiabetic activity (product dose 90 mg/kg per os at -45 min, glucose measurement at 90 min): 1 (an effect of 1 means a reduction of more than 15% of incremental blood glucose at the given time point T=min versus vehicle group); Antidiabetic activity (product dose 90 mg/kg per os at -45 min, glucose measurement at 150 min): 1 (an effect of 1 means a reduction of more than 15% of incremental blood glucose at the given time point T=min versus vehicle group) |
| CC1(c2ccccc2)CCC2(C)CC(=O)CCN2C1 (stereo not shown) [Product 3a, 7,9a-dimethyl-7-phenyloctahydro-2H-quinolizin-2-one] |  | 1 (an effect of 1 means a reduction of more than 15% of incremental blood glucose at the given time point T=min versus vehicle group) |  |
| CC1(c2ccc(F)cc2)CCC2(C)CC3(CCC(=O)O3)CCN2C1 (stereo not shown) [Product 6b, 7′-(4-fluorophenyl)-7′,9a′-dimethyldecahydro-5H-spiro[furan-2,2′-quinolizine]-5-one] | 1 (an effect of 1 means a reduction of more than 15% of incremental blood glucose at the given time point T=min versus vehicle group) |  |  |
| CC1(c2ccc(F)cc2)CCC2(C)CC(=O)CCN2C1 (stereo not shown) [Product 3b, 7-(4-fluorophenyl)-7,9a-dimethyloctahydro-2H-quinolizin-2-one] |  | 1 (an effect of 1 means a reduction of more than 15% of incremental blood glucose at the given time point T=min versus vehicle group) |  |
